Measured values reported in patent publication US6177425A, “Pyrrolopyrrolone derivatives” (Glaxo Wellcome Inc., priority 1997, dated 2001).
pIC50: −log10 of the molar value. Structures can show the parent of a compound that is named as a salt.

molecular target: T1, human neutrophil elastase (Homo sapiens, UniProt P08246); test: In vitro Assays of Human Neutrophil Elastase; assay type: biochemical; conditions: purified human neutrophil elastase 11.8 nM, pH 8.6, 15 min incubation at 30° C., 0.6 mM MeO-succinyl-alanyl-alanyl-prolyl-valyl-p-nitroanilide, 405 nm
T1 sequence (P08246 30-247 limits assumed): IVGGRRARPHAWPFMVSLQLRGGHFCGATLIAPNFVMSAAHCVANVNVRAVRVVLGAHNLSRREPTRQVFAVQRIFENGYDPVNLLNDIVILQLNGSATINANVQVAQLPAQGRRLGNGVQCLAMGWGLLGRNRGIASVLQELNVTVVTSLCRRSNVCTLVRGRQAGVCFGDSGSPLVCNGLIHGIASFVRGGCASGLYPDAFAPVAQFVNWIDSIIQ
Description: In vitro Assays of Human Neutrophil Elastase Assay contents: 50 mM Tris/HCl (pH 8.6) 150 mM NaCl 11.8 nM purified human neutrophil elastase Suitable concentrations of compound under test diluted with water from a 10 mM stock solution in dimethylsulphoxide. Values above are final concentrations after the addition of substrate solution (see below). The mixture above is incubated for fifteen minutes at 30° C. at which time the remaining elastase activity is measured for 10 minutes in a BioTek 340i plate-reader, after the addition of 0.6 mM MeO-succinyl-alanyl-alanyl-prolyl-valyl-p-nitroanilide. The rate of increase in absorbance at 405 nm is proportional to elastase activity. Enzyme activity is plotted against concentration of inhibitor and an IC50 determined using curve fitting software. 1. The compounds of Examples 1 to 7 were tested in the in vitro elastase test described earlier in the description.

Compound | pIC50
CCC[C@H]1C(=O)N(S(C)(=O)=O)[C@H]2CN(C(=O)c3cc(CN(C)C)on3)C[C@H]12 (relative stereo) [Example 7, rel-(3R,3aS,6aR)-5-(5-Dimethylaminomethyl-isoxazole-3-carbonyl)-1-methanesulfonyl-3-propyl-hexahydro-pyrrolo[3,4-b]pyrrol-2-one hydrochloride] | 6.40
CCC[C@H]1C(=O)N(S(C)(=O)=O)[C@H]2CN(C(=O)CCCN3CCCCC3)C[C@H]12 (relative stereo) [Example 2, rel-(3R,3aS,6aR)-1-Methanesulfonyl-5-(4-piperidin-1-yl-butyryl)-3-propyl-hexahydro-pyrrolo[3,4-b]pyrrol-2-one] | 6.05
CCC[C@H]1C(=O)N(S(C)(=O)=O)[C@H]2CN(S(=O)(=O)c3ccc(NC(C)=O)cc3)C[C@H]12 (relative stereo) [Example 3, rel-N-[4-(1-Methanesulfonyl-2-oxo-3R-propylhexahydro-(3aS,6aR)-pyrrolo[3,4-b]pyrrole-5-sulfonyl)-phenyl]acetamide] | 6.64
CCC[C@H]1C(=O)N(S(C)(=O)=O)[C@H]2CN(C(=O)C=CCN3CCCCC3)C[C@H]12 (relative stereo) [Example 1, rel-(3R,3aS,6aR)-1-Methanesulfonyl-5-(4-piperidin-1-yl-but-2-enoyl)-3-propyl-hexahydro-pyrrolo[3,4-b]pyrrol-2-one hydrochloride] | 6.64
CCC[C@H]1C(=O)N(S(C)(=O)=O)[C@H]2CN(C(=O)c3cc(CN4CCOCC4)on3)C[C@H]12 (relative stereo) [Example 6, rel-(3R,3aS,6aR)-1-Methanesulfonyl-5-(5-morpholin-4-ylmethyl-isoxazole-3-carbonyl)-3-propyl-hexahydro-pyrrolo[3,4-b]pyrrol-2-one hydrochloride] | 6.84
CCC[C@H]1C(=O)N(S(C)(=O)=O)[C@H]2CN(C(=O)c3ccc(CN4CCOCC4)cc3)C[C@H]12 (relative stereo) [Example 5, rel-(3R,3aS,6aR)-1-Methanesulfonyl-5-(4-morpholin-4-ylmethyl-benzoyl)-3-propyl-hexahydro-pyrrolo[3,4-b]pyrrol-2-one hydrochloride] | 6.65
CCC[C@H]1C(=O)N(S(C)(=O)=O)[C@H]2CN(C(=O)c3ccc(CN4CCCCC4)cc3)C[C@H]12 (relative stereo) [Example 4, rel-(3R,3aS,6aR)-1-Methanesulfonyl-5-(4-piperidin-1-ylmethyl-benzoyl)-3-propyl-hexahydro-pyrrolo[3,4-b]pyrrol-2-one hydrochloride] | 6.53
